Source: paper PMC11099041, “Tissue distribution and retention drives efficacy of rapidly clearing VHL-based PROTACs” (Communications Medicine, 2024)
Like-named read-outs stand apart in the source and are kept apart here.

Assay: Mouse pharmacokinetics in CD-1 mice (blood, kidney, liver, lung)
Type: in vivo
Conditions: for Tmax: mouse, dose = c0, matrix = c1 of the line
Protocol: For the PK study, a total of 42 male CD-1 mice weighing ~20-35 g were acquired from Lingchang/Vital River Laboratory Animal Co., Ltd. (Shanghai/Beijing, P.R. China) and divided into 2 treatment groups. […] was dosed with one low dose (1 mg/kg) and one high dose group (20 mg/kg). For the low-dose groups, nine animals were required for organ quantification with termination at 24 hours. For the high-dose groups, 12 animals were required for organ quantification with termination at 48 hours. The animal was administered either 1 mg/kg or 20 mg/kg of formulation solution (10% HP-β-CD in acetate buffer at pH 4.0) by IV bolus through the left lateral tail vein injection. […] Blood samples were placed on wet ice, mixed, then frozen and stored in a freezer set to -60 °C or lower until analysis. After the blood samples were collected at the terminal time points, the animals were sacrificed, and the liver, lung and kidney were harvested. The tissues were rinsed in cold water and then blotted on filter papers, weighed and homogenized using pre-cooled water at the ratio of 1:4. The tissue homogenate samples were kept at -70 °C until analysis. […] Working standard solutions were spiked into 25 μL of blank matrix on the sample plate. […] The supernatant (20 μL) was transferred into the MS injection plate, then diluted with water before injection for LC-MS/MS analysis. The concentrations of […] were quantified by an LC-MS/MS method. The LC-MS/MS system was a Waters Acquity UPLC System (Milford, MA) coupled to a Sciex Triple Quad 6500 Plus mass spectrometer (AB Sciex, Foster City, CA). The aqueous mobile phase for the analysis was 0.1% formic acid and 2 mM ammonium formate in water/ACN (v:v, 95:5) (A), and the organic mobile phase was 0.1% formic acid and 2 mM ammonium formate in ACN/water (v:v, 95:5) (B). […] Column temperature was set at 50 °C. […] The flow rate was set at 0.7 mL/min. […] The lower limit of quantitation in all matrices was 5.1 ng/mL. The mean time concentration profile was generated for each group, and an overall AUC was then calculated with these sparse samples of rats and mice. […] The following parameters were estimated whenever possible: C0, Back-extrapolated concentration at time 0; Cmax, Maximum observed concentration; Tmax, Time of maximum observed concentration; AUC0-t, Area under the concentration-time curve from hour 0 to the last measurable concentration, estimated by the linear trapezoidal rule; AUC0-336, Area under the concentration-time curve from hour 0 to hour 336, estimated by the linear trapezoidal rule; DN AUC0-336, Dose normalized AUC0-336, calculated as AUC0-336/dose level; […] AUC0-∞ = AUC0-t + Ct/λz, where Ct is the last measurable concentration and λz is the elimination rate constant; t1/2, Elimination half-life, determined by ln(2)/λz; CL, Clearance, calculated as dose/AUC0-inf; Vd, Volume of distribution based on the terminal phase, calculated as: dose/(λz × AUC0-∞) Nominal doses and sampling times were used. […] Embedded zeros were excluded from kinetic analysis.

[1] = male, CD-1, mouse, in vivo, 1 mg/kg, Kidney, 1 mg/kg IV, individual animals, read-out: Concentration (µM) from 1 mg/kg Dosing Kidney
[2] = male, CD-1, mouse, in vivo, 1 mg/kg, Kidney, 1 mg/kg IV, mean, read-out: Concentration (µM) from 1 mg/kg Dosing Kidney
[3] = male, CD-1, mouse, in vivo, 1 mg/kg, Liver, 1 mg/kg IV, individual animals, read-out: Concentration (µM) from 1 mg/kg Dosing Liver
[4] = male, CD-1, mouse, in vivo, 1 mg/kg, Liver, 1 mg/kg IV, mean, read-out: Concentration (µM) from 1 mg/kg Dosing Liver
[5] = male, CD-1, mouse, in vivo, 1 mg/kg, Lung, 1 mg/kg IV, individual animals, read-out: Concentration (µM) from 1 mg/kg Dosing Lung
[6] = male, CD-1, mouse, in vivo, 1 mg/kg, Lung, 1 mg/kg IV, mean, read-out: Concentration (µM) from 1 mg/kg Dosing Lung
[7] = male, CD-1, mouse, in vivo, 20 mg/kg, Blood, 20 mg/kg IV, individual animals, read-out: Concentration (µM) from 20 mg/kg Dosing Blood
[8] = male, CD-1, mouse, in vivo, 20 mg/kg, Blood, 20 mg/kg IV, mean, read-out: Concentration (µM) from 20 mg/kg Dosing Blood
[9] = male, CD-1, mouse, in vivo, 20 mg/kg, Kidney, 20 mg/kg IV, individual animals, read-out: Concentration (µM) from 20 mg/kg Dosing Kidney
[10] = male, CD-1, mouse, in vivo, 20 mg/kg, Kidney, 20 mg/kg IV, mean, read-out: Concentration (µM) from 20 mg/kg Dosing Kidney
[11] = male, CD-1, mouse, in vivo, 20 mg/kg, Liver, 20 mg/kg IV, mean, read-out: Concentration (µM) from 20 mg/kg Dosing Liver
[12] = male, CD-1, mouse, in vivo, 20 mg/kg, Lung, 20 mg/kg IV, individual animals, read-out: Concentration (µM) from 20 mg/kg Dosing Lung
[13] = male, CD-1, mouse, in vivo, 20 mg/kg, Lung, 20 mg/kg IV, mean, read-out: Concentration (µM) from 20 mg/kg Dosing Lung
[14] = male, CD-1, mouse, kidney, intravenous, 20 mg/kg, Kidney, 20 mg/kg IV, individual animals, read-out: Concentration (µM) from 20 mg/kg Dosing Kidney
[15] = male, CD-1, mouse, kidney, intravenous, 20 mg/kg, Kidney, 20 mg/kg IV, mean, read-out: Concentration (µM) from 20 mg/kg Dosing Kidney
[16] = male, CD-1, mouse, liver, intravenous, 20 mg/kg, Liver, 20 mg/kg IV, mean, read-out: Concentration (µM) from 20 mg/kg Dosing Liver
[17] = male, CD-1, mouse, lung, intravenous, 20 mg/kg, Lung, 20 mg/kg IV, mean, read-out: Concentration (µM) from 20 mg/kg Dosing Lung

`Cc1ncsc1-c1ccc(C(C)NC(=O)C2CC(O)CN2C(=O)C(c2cc(N3CCC(CN4CCC(OC5CC(Oc6cc(N7C8CCC7CN(c7cc(-c9ccccc9O)nnc7N)C8)ccn6)C5)CC4)CC3)no2)C(C)C)cc1` (centres unmarked) [A947] gave a concentration at 4 h (male, CD-1, mouse, in vivo, 1 mg/kg, Blood, 1 mg/kg IV, mean, read-out: Concentration (µM) from 1 mg/kg Dosing Blood) of 0.005 µM, a concentration at 4 h [1] of 0.753 µM and a concentration at 4 h [2] of 0.561 µM. For the same compound, the concentration at 8 h [1] was 0.282 µM, the concentration at 8 h [2] was 0.32 µM and the concentration at 24 h [1] was 0.019 µM. The concentration at 24 h [2] was 0.023 µM, the concentration at 4 h [3] was 0.071 µM and the concentration at 4 h [4] was 0.079 µM. It also gave a concentration at 8 h [3] of 0.057 µM, a concentration at 8 h [4] of 0.045 µM and a concentration at 24 h (male, CD-1, mouse, in vivo, 1 mg/kg, Liver, 1 mg/kg IV, individual animals, BLOQ <5.1 ng/mL, read-out: Concentration (µM) from 1 mg/kg Dosing Liver) of 0.006 µM. The concentration at 24 h [4] was 0.006 µM, the concentration at 4 h [5] was 0.098 µM and the concentration at 4 h [6] was 0.094 µM. For the same compound, the concentration at 8 h [5] was 0.048 µM, the concentration at 8 h [6] was 0.062 µM and the concentration at 24 h [5] was 0.014 µM. The concentration at 24 h [6] was 0.014 µM, the concentration at 0.083 h [7] was 13.3 µM and the concentration at 0.083 h [8] was 11.1 µM. The concentration at 0.25 h [7] was 4.28 µM, the concentration at 0.25 h [8] was 3.65 µM and the concentration at 0.5 h [7] was 2.54 µM. For the same compound, the concentration at 0.5 h [8] was 1.93 µM, the concentration at 1 h [7] was 0.951 µM and the concentration at 1 h [8] was 0.847 µM. For the same compound, the concentration at 2 h [7] was 0.294 µM, the concentration at 2 h [8] was 0.252 µM and the concentration at 4 h [8] was 0.154 µM. It also gave a concentration at 8 h [7] of 0.048 µM, a concentration at 8 h [8] of 0.047 µM and a concentration at 4 h [9] of 16.9 µM. The concentration at 4 h [10] was 14 µM, the concentration at 8 h [9] was 6.14 µM and the concentration at 8 h [10] was 8.43 µM. It also gave a concentration at 4 h [11] of 48.4 µM, a concentration at 8 h (male, CD-1, mouse, in vivo, 20 mg/kg, Liver, 20 mg/kg IV, individual animals, read-out: Concentration (µM) from 20 mg/kg Dosing Liver) of 15.1 µM and a concentration at 8 h [11] of 19.2 µM. The concentration at 4 h [12] was 5.1 µM, the concentration at 4 h [13] was 5.75 µM and the concentration at 8 h [12] was 1.59 µM. For the same compound, the concentration at 8 h [13] was 2.31 µM, the concentration at 24 h [14] was 0.28 µM and the concentration at 24 h [15] was 0.361 µM. It also gave a concentration at 48 h [14] of 0.11 µM, a concentration at 48 h [15] of 0.086 µM and a Kp (male, CD-1, mouse, kidney, intravenous, 20 mg/kg, for the 2 dose levels (1, 20 mg/kg), read-out: Tissue-to-blood AUC ratio, kidney) of 160 to 243. It also gave a concentration at 24 h (male, CD-1, mouse, liver, intravenous, 20 mg/kg, Liver, 20 mg/kg IV, individual animals, read-out: Concentration (µM) from 20 mg/kg Dosing Liver) of 14.3 µM, a concentration at 24 h [16] of 10.8 µM and a concentration at 48 h [16] of 1.9 µM. The Kp (male, CD-1, mouse, liver, intravenous, for the 2 dose levels, read-out: Tissue-to-blood AUC ratio, liver) was 50 to 127, the concentration at 24 h [17] was 0.602 µM and the concentration at 48 h [17] was 0.658 µM. The Kp (male, CD-1, mouse, lung, intravenous, for the 2 dose levels, read-out: Tissue-to-blood AUC ratio, lung) was 26 to 50, the clearance (male, CD-1, mouse, whole blood, iv, CD-1 mice IV, blood, dose = c0) was 0.9 to 1.2 L/h/kg and the Tmax (male, blood, kidney, liver, lung (per row, column Matrix), CD-1 mice IV) was 0.083 h. The Tmax (male, kidney, liver, lung, CD-1 mice IV) was 4 h and the “Initial decrease of concentration in blood” value (mice IV 1 and 20 mg/kg, within initial 4 hours) was over 90%.
